Results from US12558366B2, “Bacterial DNA gyrase inhibitors and methods of use thereof” (THE FLORIDA INTERNATIONAL UNIVERSITY BOARD OF TRUSTEES, priority 2021, dated 2026).
≈ marks a conversion by molar mass, not a printed value. Where two headings read alike, the source gives them in different places.

What was measured:
Mtb DNA gyrase = Mtb DNA gyrase (Mycobacterium tuberculosis, UniProt P9WG45+P9WG47); assay: Mtb DNA gyrase inhibition; format: biochemical
E. coli DNA gyrase [1] = molecular target: T1, E. coli DNA gyrase (Escherichia coli, UniProt P0AES4+P0AES6); assay: E. coli DNA gyrase inhibition (agarose gel-based and/or SDFQ-based, not specified per value); format: biochemical
S. aureus (ATCC 14775) = assay: Minimum inhibitory concentration, S. aureus; format: cell-based
Protocol: (§1) Antibacterial minimum inhibitory concentrations (MICs) were obtained from three independent experiments using broth microdilution methods in 96-well plates according to Clinical and Laboratory Standards Institute guidelines. Cells were culture from singles colonies in MHIIB medium for 24 h at 37° C. in agitation (200 RPM). The cultures were then diluted using the same media to reach an OD600 of 0.1. Then, 50 μL of the diluted cultures were added to the plates holding 50 μL of serially diluted compounds in MHIIB. The plates were incubated at 37° C. for 20 h. The starting inoculum was fixated to 10^5 colony-forming units per ml.

MRSA (ATCC BAA44) = assay: microbe, parasite or virus in culture; format: cell-based, S. aureus
Protocol: as §1

Mtb = Mtb inhibition (antibacterial activity); format: cell-based, Mycobacterium tuberculosis; set-up: % Mtb inhibition: concentration or dose not given beside the values; settings: for % Mtb inhibition: Table 5
E. coli imp = assay: microbe, parasite or virus in culture; format: cell-based; settings: for MIC: Escherichia coli
Protocol: as §1

B. subtilis (ATCC 6633) = assay: Minimum inhibitory concentration, B. subtilis; format: cell-based; settings: for MIC: Bacillus subtilis, ATCC6633, Tables 3a-3c
Protocol: as §1

E. coli DNA gyrase [2] = molecular target: T1, E. coli DNA gyrase; assay: Agarose gel-based DNA gyrase inhibition assays; format: biochemical
Protocol: 100 ng of DNA gyrase was used to supercoil the rx pAB1 in the presence of different concentrations of a gyrase inhibitor. […] Samples were analyzed by electrophoresis in 1% w/v agarose gels followed by ethidium bromide staining and photographed under UV light.

E. coli (ATCC 25922) = assay: Minimum inhibitory concentration, E. coli; format: cell-based; settings: for MIC: Escherichia coli, ATCC25922, read-out: Minimum Inhibitory Concentration E. coli
Protocol: as §1

DNA = DNA binding, intercalation and photo-induced crosslinking
[3] = Table 2 values, read-out: IC50 ( ≤15 μM) IC50
[4] = read-out: Minimum Inhibitory Concentration E. coli imp

T1 sequence (P0AES4 whole entry, one chain of several): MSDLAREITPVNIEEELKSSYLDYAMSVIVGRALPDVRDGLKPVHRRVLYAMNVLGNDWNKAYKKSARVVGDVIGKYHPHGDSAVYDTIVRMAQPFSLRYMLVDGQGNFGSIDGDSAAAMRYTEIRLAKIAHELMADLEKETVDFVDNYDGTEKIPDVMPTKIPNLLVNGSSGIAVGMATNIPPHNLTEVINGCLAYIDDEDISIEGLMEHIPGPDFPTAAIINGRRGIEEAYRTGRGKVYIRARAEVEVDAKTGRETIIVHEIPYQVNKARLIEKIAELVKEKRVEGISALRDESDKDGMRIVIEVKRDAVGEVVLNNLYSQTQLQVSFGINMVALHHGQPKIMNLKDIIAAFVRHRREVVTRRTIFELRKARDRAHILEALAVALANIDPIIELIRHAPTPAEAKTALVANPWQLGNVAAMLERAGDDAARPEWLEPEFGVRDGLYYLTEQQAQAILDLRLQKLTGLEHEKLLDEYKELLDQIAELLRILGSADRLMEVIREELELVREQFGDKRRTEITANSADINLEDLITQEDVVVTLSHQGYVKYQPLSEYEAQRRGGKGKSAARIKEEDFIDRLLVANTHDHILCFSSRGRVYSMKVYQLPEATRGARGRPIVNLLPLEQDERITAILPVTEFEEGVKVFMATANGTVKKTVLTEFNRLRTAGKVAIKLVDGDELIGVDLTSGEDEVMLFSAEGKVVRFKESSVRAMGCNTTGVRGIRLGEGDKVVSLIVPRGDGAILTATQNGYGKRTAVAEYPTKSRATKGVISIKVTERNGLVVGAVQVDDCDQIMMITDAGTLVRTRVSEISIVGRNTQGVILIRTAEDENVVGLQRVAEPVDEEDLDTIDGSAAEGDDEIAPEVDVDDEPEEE
Mtb DNA gyrase, sequence (P9WG45 whole entry): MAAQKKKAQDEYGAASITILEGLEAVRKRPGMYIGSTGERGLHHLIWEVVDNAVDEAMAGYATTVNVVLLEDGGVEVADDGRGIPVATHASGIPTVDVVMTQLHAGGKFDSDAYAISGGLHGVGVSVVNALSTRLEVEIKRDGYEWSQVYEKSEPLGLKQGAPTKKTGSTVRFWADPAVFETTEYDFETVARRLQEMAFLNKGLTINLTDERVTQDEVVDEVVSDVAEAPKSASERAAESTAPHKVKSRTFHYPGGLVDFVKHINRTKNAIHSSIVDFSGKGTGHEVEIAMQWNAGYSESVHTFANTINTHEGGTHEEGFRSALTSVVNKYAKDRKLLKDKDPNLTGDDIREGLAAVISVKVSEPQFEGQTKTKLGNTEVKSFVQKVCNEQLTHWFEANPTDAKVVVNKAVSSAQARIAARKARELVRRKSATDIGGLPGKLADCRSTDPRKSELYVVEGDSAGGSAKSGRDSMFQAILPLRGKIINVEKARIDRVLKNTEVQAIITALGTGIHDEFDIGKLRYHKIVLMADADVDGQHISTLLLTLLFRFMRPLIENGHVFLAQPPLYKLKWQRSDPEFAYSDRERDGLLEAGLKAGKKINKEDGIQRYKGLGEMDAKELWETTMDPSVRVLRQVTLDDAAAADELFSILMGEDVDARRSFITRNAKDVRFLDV
Mtb DNA gyrase, sequence (P9WG47 whole entry): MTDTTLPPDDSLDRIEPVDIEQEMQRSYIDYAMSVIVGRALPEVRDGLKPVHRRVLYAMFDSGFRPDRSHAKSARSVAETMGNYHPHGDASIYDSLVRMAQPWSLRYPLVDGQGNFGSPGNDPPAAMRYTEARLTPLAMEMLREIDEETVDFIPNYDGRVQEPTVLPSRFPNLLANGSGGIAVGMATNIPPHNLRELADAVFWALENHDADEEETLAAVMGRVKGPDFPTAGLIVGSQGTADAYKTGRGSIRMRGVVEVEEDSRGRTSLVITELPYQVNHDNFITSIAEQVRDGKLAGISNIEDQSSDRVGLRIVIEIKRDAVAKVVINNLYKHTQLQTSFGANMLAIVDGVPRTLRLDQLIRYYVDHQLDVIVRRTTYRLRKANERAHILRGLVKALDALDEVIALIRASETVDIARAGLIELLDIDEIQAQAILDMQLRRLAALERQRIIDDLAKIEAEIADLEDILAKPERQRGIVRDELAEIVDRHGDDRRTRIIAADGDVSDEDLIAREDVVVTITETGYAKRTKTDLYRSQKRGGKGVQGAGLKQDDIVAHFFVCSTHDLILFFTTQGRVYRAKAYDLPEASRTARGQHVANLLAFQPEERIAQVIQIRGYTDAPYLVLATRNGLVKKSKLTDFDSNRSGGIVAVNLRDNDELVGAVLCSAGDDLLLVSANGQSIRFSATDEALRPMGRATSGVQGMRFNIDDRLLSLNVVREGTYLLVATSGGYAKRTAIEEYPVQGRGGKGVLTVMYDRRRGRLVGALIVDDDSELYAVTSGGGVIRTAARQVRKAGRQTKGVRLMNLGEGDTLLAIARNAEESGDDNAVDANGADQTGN

CNC(=O)[C@H]1O[C@@H](n2cnc3c(NCc4ccc(N)cc4)ncnc32)[C@H](O)[C@@H]1O [AB-MECA, reference compound]
inhibition of Mtb DNA gyrase activities (Mtb DNA gyrase): did not inhibit

Cc1cc(C)c2c(c1)C(=NNc1ccc(C(=O)O)cc1)C(O)=N2 [Compound 9, 4-[2-(5,7-Dimethyl-2-oxoindol-3-yl)hydrazinyl]benzoic acid]
IC50 (E. coli DNA gyrase [1]; [3]): 1.69 µM | growth inhibition of S. aureus (S. aureus (ATCC 14775)): strongly inhibited the growth | growth inhibition of MRSA (MRSA (ATCC BAA44)): strongly inhibited the growth

CSc1nc(SCC(=O)O)c2sc3nc(-c4ccccc4)c4c(c3c2n1)CCC4 [Compound 19]
IC50 (E. coli DNA gyrase [1]; [3]): 3.55 µM | activity against Mtb (Mtb): Mtb active hits

Cc1c(CCC(=O)O)c(=O)oc2cc3occ(-c4ccc(Cl)cc4)c3cc12 [Compound 25]
IC50 (E. coli DNA gyrase [1]; [3]): 10.6 µM | MIC (E. coli imp; [4]): 25 µM | MIC (B. subtilis (ATCC 6633)): 25 µM (≈ 9.57 µg/mL) | % Mtb inhibition (Mtb): 0.8%

O=C(O)CCN1C(=O)/C(=C/c2ccc(-c3nc4ccccc4s3)o2)SC1=S [Compound 27]
IC50 (E. coli DNA gyrase [1]; [3]): 1.74 µM

O=C(O)CCCCCN1C(=O)/C(=C\c2ccc(-c3ccc(Cl)cc3)o2)SC1=S [Compound 36]
IC50 (E. coli DNA gyrase [1]; [3]): 7.42 µM

CC(C)(CS(=O)(=O)[O-])NC(=O)CC[N+](C)(C)CCO [Compound 42]
IC50 (E. coli DNA gyrase [1]; [3]): 2.18 µM

O=C(O)c1cccc(-c2ccc(/C=c3/sc4nc5ccccc5n4c3=O)o2)c1 [Compound 47]
IC50 (E. coli DNA gyrase [1]; [3]): 1.87 µM | activity against Mtb (Mtb): Mtb active hits

COc1cc2ccccc2cc1C(=O)NC(=S)Nc1ccc(C(=O)O)cc1 [Compound 72]
IC50 (E. coli DNA gyrase [1]; [3]): 12.4 µM

Cc1cc(C)c2sc(NC(=O)C3CC3)nc2c1 [Compound 73]
IC50 (E. coli DNA gyrase [1]; [3]): 7.86 µM

Cc1c2cc(O)c(=O)cc-2oc2cc(O)c(O)cc12 [Compound 75]
IC50 (E. coli DNA gyrase [1]; [3]): 5.28 µM

CNC(=O)[C@H]1O[C@@H](n2cnc3c(NCc4cccc(I)c4)nc(Cl)nc32)[C@H](O)[C@@H]1O [Compound 76]
IC50 (E. coli DNA gyrase [1]; [3]): 2.53 µM

O=C(Nc1cccc(C2=NCCN2)c1)Nc1cccc(C2=NCCN2)c1 [Compound 79]
inhibition of E. coli DNA gyrase activities (E. coli DNA gyrase [2]; 200 μM of compounds): completely inhibited | MIC (E. coli imp; [4]): 50 µM

Cc1cccc2c1N=C(O)C2=NNc1ccc(S(C)(=O)=O)cc1 [Compound 109]
inhibition of E. coli DNA gyrase activities (E. coli DNA gyrase [2]; 50 μM of compounds): completely inhibited

O=C1Nc2ccc(Br)cc2C1=NNc1ccc(C(=O)O)cc1 [Compound 111]
inhibition of E. coli DNA gyrase activities (E. coli DNA gyrase [2]; 50 μM of compounds): completely inhibited | MIC (B. subtilis (ATCC 6633)): 100 µM (≈ 36 µg/mL)

Cc1c(CC(=O)O)c(=O)oc2c(C)c3occ(-c4ccc(Br)cc4)c3cc12 [Compound 117]
MIC (E. coli (ATCC 25922)): > 200 µM | MIC (E. coli imp; [4]): > 200 µM | MIC (B. subtilis (ATCC 6633)): > 200 µM | % Mtb inhibition (Mtb): 24.7%

Cc1c(CCC(=O)O)c(=O)oc2c(C)c3occ(-c4ccc(Cl)cc4)c3cc12 [Compound 120]
MIC (E. coli (ATCC 25922)): > 200 µM | MIC (E. coli imp; [4]): > 200 µM | MIC (B. subtilis (ATCC 6633)): > 200 µM | % Mtb inhibition (Mtb): 18.7%

Cc1c(CCC(=O)O)c(=O)oc2c(C)c3occ(-c4ccccc4)c3cc12 [Compound 121]
inhibition of E. coli DNA gyrase activities (E. coli DNA gyrase [2]; 50 μM of compounds): completely inhibited | MIC (E. coli (ATCC 25922)): > 200 µM | MIC (E. coli imp; [4]): 100 µM | % Mtb inhibition (Mtb): 36.7%

Cc1c(CCC(=O)O)c(=O)oc2c(C)c3occ(-c4ccc(F)cc4)c3cc12 [Compound 123]
MIC (E. coli (ATCC 25922)): > 200 µM | MIC (E. coli imp; [4]): > 200 µM | % Mtb inhibition (Mtb): 31.8%

Cc1c(CCC(=O)O)c(=O)oc2c(C)c3occ(-c4ccc(N5CCCC5)cc4)c3cc12 [Compound 125]
growth inhibition of S. aureus (S. aureus (ATCC 14775)): did not inhibit the growth | growth inhibition of MRSA (MRSA (ATCC BAA44)): did not inhibit the growth | % Mtb inhibition (Mtb): 10.2%

O=C(O)c1ccc(/N=N/C2C(O)=Nc3ccc(F)cc32)cc1 (stereo not drawn) [Compound 127]
activity against Mtb (Mtb): Mtb active hits

Cc1cccc2c1N=C(O)C2/N=N/c1ccc(C(=O)O)cc1 (stereo not drawn) [Compound 128]
activity against Mtb (Mtb): Mtb active hits

Cc1cc(NN=Cc2ccc([N+](=O)[O-])o2)nc2ccccc12 [Compound 134]
MIC (S. aureus (ATCC 14775); Staphylococcus aureus, ATCC14775, Tables 3a-3c, read-out: Minimum Inhibitory Concentration S. aureus): 200 µM (≈ 59.3 µg/mL) | MIC (MRSA (ATCC BAA44); Staphylococcus aureus, read-out: Minimum Inhibitory Concentration S. aureus MRSA): 200 µM (≈ 59.3 µg/mL)

O=C(O)C(Cc1ccccc1)N1C(=O)/C(=C\C=C\c2ccco2)SC1=S (stereo not drawn) [Compound 157]
IC50 (E. coli DNA gyrase [1]; [3]): 10 µM | MIC (E. coli imp; [4]): 100 µM

O=[N+]([O-])c1cc(/C=N/Nc2nc3ccccc3[nH]2)c(O)cc1O [Compound 159]
IC50 (E. coli DNA gyrase [1]; [3]): 6.25 µM

O=C(/C=C/c1ccco1)Nc1cccc2cccnc12 [Compound 164]
MIC (E. coli imp; [4]): 100 µM

N#C/C(=C\c1coc2ccc(O)cc2c1=O)C(=O)/N=c1\[nH]c2ccccc2s1 [Compound 165]
IC50 (E. coli DNA gyrase [1]; [3]): 6.25 µM

O=C(O)C(c1ccccc1)N1C(=O)/C(=C\c2ccc(-c3cccc(Cl)c3)o2)SC1=S (stereo not drawn) [Compound 176]
IC50 (E. coli DNA gyrase [1]; [3]): 2 µM

COc1cc(/C=N/N=c2\[nH]c3ccccc3s2)cc([N+](=O)[O-])c1O [Compound 178]
IC50 (E. coli DNA gyrase [1]; [3]): 1.56 µM | activity against Mtb (Mtb): Mtb active hits

O=C(NN1C(=O)/C(=C\C=C\c2ccco2)SC1=S)c1ccccc1O [Compound 180]
MIC (E. coli imp; [4]): 100 µM

O=C1/C(=C\c2ccc(O)c([N+](=O)[O-])c2)SC(=S)N1Cc1ccccc1 [Compound 192]
IC50 (E. coli DNA gyrase [1]; [3]): 8 µM

O=C1NC(=S)SC1=Cc1cc(Cl)cc(Cl)c1O [Compound 207]
inhibition of E. coli DNA gyrase activities (E. coli DNA gyrase [2]; 50 μM of compounds): inhibited | inhibition of E. coli DNA gyrase activities (E. coli DNA gyrase [2]; 200 μM of compounds): completely inhibited | IC50 (E. coli DNA gyrase [1]): 50 to 200 µM

NN=C1c2ccccc2C(=O)C1C(=O)C(c1ccccc1)c1ccccc1 (stereo not drawn) [Compound 211]
inhibition of E. coli DNA gyrase activities (E. coli DNA gyrase [2]; 50 μM of compounds): inhibited | inhibition of E. coli DNA gyrase activities (E. coli DNA gyrase [2]; 200 μM of compounds): completely inhibited | IC50 (E. coli DNA gyrase [1]): 50 to 200 µM

Brc1ccc2c(c1)-c1ccccc1C1=NCCN12 [Compound 217]
DNA intercalator (DNA): DNA intercalators

C[n+]1c(-c2ccc(C=NNC(=O)c3ccc(C(=O)NN=Cc4ccc(-c5cn6ccccc6[n+]5C)cc4)cc3)cc2)cn2ccccc21 [Compound 229]
IC50 (E. coli DNA gyrase [1]): 25 to 50 µM

CN(C)c1ccc(/C=c2\c3ccccc3n3c2cc(-c2ccccc2)[n+]3C)cc1 [Compound 236]
DNA intercalator (DNA): DNA intercalator

COc1ccc2c(c1)/c(=C\c1ccc(N(C)C)cc1)c1cc(-c3ccccc3)[n+](C)n12.O=S(=O)([O-])C(F)(F)F [Compound 237]
DNA intercalator (DNA): DNA intercalators

CCOC(=O)c1cc2c(=Cc3ccc(N(C)C)cc3)c3ccccc3n2[n+]1C.O=S(=O)([O-])C(F)(F)F [Compound 239]
DNA intercalator (DNA): DNA intercalators

COc1cccc2nc3c(C(=O)NCCN(C)C)cccc3cc12.Cl [Compound 240]
DNA intercalator (DNA): DNA intercalators

CN(C)CCNC(=O)c1cccc2nc3cccc(F)c3nc12.Cl [Compound 241]
DNA intercalator (DNA): DNA intercalators

Nc1ccc2cc3ccc(N)cc3nc2c1 [Compound 246]
DNA intercalator (DNA): DNA intercalators

Nc1c2ccccc2nc2ccccc12 [Compound 247]
DNA intercalator (DNA): DNA intercalators

CN1/C(=C/c2cc[n+](C)c3ccccc23)Sc2ccccc21.Cc1ccc(S(=O)(=O)[O-])cc1 [Compound 248]
DNA intercalator (DNA): DNA intercalators

CN(C)c1ccc2cc3ccc(N(C)C)cc3nc2c1 [Compound 249]
DNA intercalator (DNA): DNA intercalators

O=C1OC2(c3ccccc31)c1cc(I)c(O)c(I)c1Oc1c2cc(I)c(O)c1I [Compound 253, Erythrosin B]
IC50 (E. coli DNA gyrase [1]; [3]): 3.12 µM

CCOc1ccc2nc3cc(N)ccc3c(N)c2c1 [Compound 257]
DNA intercalator (DNA): DNA intercalators

CSC1SC2C(=O)N(C)C(C(C)C)C(=O)OCC(NC(=O)c3cnc4ccccc4n3)C(=O)NC(C)C(=O)N(C)C1C(=O)N(C)C(C(C)C)C(=O)OCC(NC(=O)c1cnc3ccccc3n1)C(=O)NC(C)C(=O)N2C (stereo not drawn) [Compound 258]
DNA intercalator (DNA): DNA intercalators

CN1C[C@H](CNC(=O)OCc2ccccc2)C[C@@H]2c3cccc4c3c(cn4C)C[C@H]21 [Metergoline, reference compound]
inhibition of gyrase activities (E. coli DNA gyrase [2]; at 100 and 200 μM): inhibits gyrase activities

CCCCCCCCOC(=O)c1cc(O)c(O)c(O)c1 [Octyl gallate]
MIC (E. coli imp; read-out: MIC (μg/ml) E. coli imp): 14.1 µg/mL

O=c1ccc2cc3ccoc3cc2o1 [psoralen, reference compound]
inhibition of E. coli DNA gyrase activities (E. coli DNA gyrase [1]): not a gyrase inhibitor

Biphenyl gallate
MIC (μg/ml) E. coli ATCC 25922 (E. coli (ATCC 25922); Table 7): 517.29 µg/mL | MIC (μg/ml) E. coli imp (E. coli imp; Table 7): 36.43 µg/mL | MIC (μg/ml) S. aureus ATCC 14775 (S. aureus (ATCC 14775); Table 7): 16 µg/mL | MIC (μg/ml) S. aureus (MRSA) ATCC BAA44 (MRSA (ATCC BAA44); Table 7): 16 µg/mL | MIC (μg/ml) B. subtilis ATCC 6633 (B. subtilis (ATCC 6633); Table 7): 16 µg/mL

mithramycin [Compound 225, reference compound]
inhibition of E. coli DNA gyrase activities (E. coli DNA gyrase [2]; 50 μM of compounds): completely inhibited | inhibition of E. coli DNA gyrase activities (E. coli DNA gyrase [2]; 200 μM of compounds): completely inhibited | inhibition of E. coli DNA gyrase activities (E. coli DNA gyrase [1]): strongly inhibited
